In patent publication US20110028490A1, “4-PHENYL-PIPERAZIN-1-YL-ALKYL-BENZOIMIDAZOL-2-ONE DERIVATIVES AND THEIR USE AS MONOAMINE NEUROT[…]-UPTAKE IN-HIBITORS” (N[…]/S, priority 2008, published 2011):
Where a name gives a salt, the structure may show the parent alone.

Assays:
Type in all cases: biochemical
[1] = system: serotonine (5-HT) reuptake in synaptosomes; test: Inhibition of 5-HT reuptake in synaptosomes; details: 3H-5-HT, read-out: 5-HT-uptake IC50
Method: (§1) Compounds were tested for their ability to inhibit the reuptake of the monoamine neurotransmitters dopamine (DA) noradrenaline (NA) and serotonine (5-HT) in synaptosomes as described in WO 97/16451 (NeuroSearch A/S).
(§2) The test values are given as IC50 (the concentration (μM) of the test substance which inhibits the specific binding of ^3H-DA, ^3H-NA, or ^3H-5-HT by 50%).

[2] = system: noradrenaline (NA) reuptake in synaptosomes; test: Inhibition of NA reuptake in synaptosomes; details: 3H-NA, read-out: NA-uptake IC50
Method: as §1, §2

[3] = system: dopamine (DA) reuptake in synaptosomes; test: Inhibition of DA reuptake in synaptosomes; details: 3H-DA, read-out: DA-uptake IC50
Method: as §1, §2

Structure (SMILES) | IC50 [1] [nM] | IC50 [2] [nM] | IC50 [3] [nM]
O=c1n(CCN2CCN(c3ccc(Cl)cc3)CC2)c2ccccc2n1C1=CCCCC1 [Compound A3, 1-{2-[4-(4-Chloro-phenyl)-piperazin-1-yl]-ethyl}-3-cyclohex-1-enyl-1,3-dihydro-benzoimidazol-2-one fumaric acid salt] | 22 | > 1000 | 430
C=C(C)n1c(=O)n(CCN2CCN(c3ccc(Cl)c(Cl)c3)CC2)c2ccccc21 [Compound A1, 1-{2-[4-(3,4-Dichloro-phenyl)-piperazin-1-yl]-ethyl}-3-isopropenyl-1,3-dihydro-benzoimidazol-2-one fumaric acid salt] | 1 | 1070 | 1100
